One series deals with NK cells. The following applies: human, 25 μM. From the text:
(§1) In human liver, NK-cells as well as NK/T-cells are much more abundant than in peripheral blood. […] All data are the mean±s.e.m. (n=15-30 blood donors).

A further series deals with NK/T cells. The following applies: human, 25 μM.
Text: as §1

For another series, the system named is T cells. The following applies: human, 25 μM.
Text: as §1

The test system of a further series is Plasmodia species. The series is described as follows: Treatment of malaria infection. The following applies: serotonin 6 mg/day with GM-CSF 100,000 U/kg/day, parenteral. It is filed as in vivo. How it is done: A subject presenting with malaria is parenterally administered GM-CSF at a rate of 100,000 U/kg/day and serotonin at a dosage of 6 mg/day. The composition acts to enhance monocyte maturation, thereby allowing the subject's immune system to eradicate cells infected with Plasmodia species. Specifically, serotonin enhances the monocyte maturation-promoting activity of […]. An increase in the number of dendritic cells presenting antigens associated with Plasmodia is observed. T-cells recognize the Plasmodia antigens, as foreign, attack, and kill the cells. The number of infected cells decreases.

Series [1] deals with CD86 antigen on human monocytes. The series is described as follows: CD86 antigen expression on human monocytes after treatment with histamine and/or GM-CSF. It is filed as cell-based. From the text:
Separation of monocytes. […] Hospital, Göteborg, Sweden. […] Treatment and cell staining.

For series [2], the system named is CD3+ T cells, CD3-/56+ NK cells, and CD3+/56+ NK/T cells. The following applies: apoptosis induced by autologous MO or GR; p<0.001.
Text: as §1

The next series has as its system prostate cancer. The following applies: histamine dihydrochloride 4 mg/day with CSF 300,000 U/kg/day and IL-12 100,000 U/kg/day. On the procedure:
A subject presenting with prostate cancer is administered 300,000 U/kg/day of CSF, 100,000 U/kg/day of IL-12, and histamine dihydrochloride at a dose of 4 mg/day.

Series [3] relates to monocytes HLA-DR expression.
Series [4] concerns metastatic melanoma of the liver. The following applies: histamine phosphate 10 mg/day with G-CSF 200,000 U/kg/day. How it is done: A subject presenting with metastatic melanoma of the liver is administered 200,000 U/kg/day of G-CSF and histamine phosphate at a dose of 10 mg/day.
In another series the test system is malignant melanoma. The following applies: melanoma patients with stage III or stage IV disease; cited from earlier work.

Turning to `OO` [hydrogen peroxide], the “NK cells that became apoptotic” value in the series with NK cells amounted to 65±7%. Further, in the series on NK/T cells, the “NK/T cells that became apoptotic” value came out at 78±7%. Also, the “T cells that became apoptotic” value with T cells was 35±5%.
Consider `NCCc1c[nH]c2ccc(O)cc12` [serotonin], for which, in the series with Plasmodia species, the “number of dendritic cells presenting antigens associated with Plasmodia” value is “increase” and the “number of infected cells” value is given as “decreases”.
For `Cl.Cl.NCCc1c[nH]cn1` [histamine, histamine dihydrochloride], the “intensity of cell surface expression of CD86” value in series [1] (histamine treatment alone) is given as “moderately enhanced”. In series [2], the “prevention of apoptosis in all cell types” value is “significantly prevented”. The tumor mass result in the series on prostate cancer was “decrease”. Moreover, the “monocytes HLA-DR expression” value in [3] is listed as “up-regulated”.
`NCCc1c[nH]cn1.O=P(O)(O)O` [histamine phosphate]: the tumor mass entry in [4] is recorded as “decrease”.
Regarding “granulocyte-macrophage colony-stimulating factor [GM-CSF]”, in [1] (overnight incubation (16 hrs), GM-CSF 0.15 μg/ml, histamine dihydrochloride 10 μM), the “mean of the monocytes that expressed CD86” value is 88%. Further, the “median survival time vs matched control patients” value with malignant melanoma is reported as “increased by a factor of three”.

(Values after US6893633B2, “Methods and compositions for promoting the maturation of monocytes” (Maxim Pharmaceuticals, Inc., priority 2000, dated 2005).)
